Calls of active or inactive are those of the source. Unless noted, no cut-off for these calls is given here.
Experiments:
[1] = molecular target: T1, Small ubiquitin-related modifier 1 (Homo sapiens, UniProt P63165); test: inhibitors of SUMO1 peptide binding, dose response, biochemical, fluorescence polarization, uHTS hits (AID 624382); type: functional; conditions: read-out: IC50_Mean
[2] = molecular target: T1, Small ubiquitin-related modifier 1; test: inhibitors of SUMO1 partner interactions, dose response, biochemical, FRET (AID 624383); type: functional; conditions: read-out: IC50_Mean
[3] = molecular target: Beta-adrenergic receptor kinase 1 (Homo sapiens, UniProt P25098); test: aptamer displacement from bead-bound GRK2 – biochemical, cherry pick 1, bead flow cytometry, dose response (AID 504500)
[4] = molecular target: T2, Carboxy-terminal domain RNA polymerase II polypeptide A small phosphatase 1 (Homo sapiens, UniProt Q9GZU7); test: inhibitors of CTDSP1, concentration-response testing, biochemical assay, absorbance-based, actives from ultra-high-throughput screening (AID 540297); type: functional
T2 sequence (Q9GZU7 whole entry): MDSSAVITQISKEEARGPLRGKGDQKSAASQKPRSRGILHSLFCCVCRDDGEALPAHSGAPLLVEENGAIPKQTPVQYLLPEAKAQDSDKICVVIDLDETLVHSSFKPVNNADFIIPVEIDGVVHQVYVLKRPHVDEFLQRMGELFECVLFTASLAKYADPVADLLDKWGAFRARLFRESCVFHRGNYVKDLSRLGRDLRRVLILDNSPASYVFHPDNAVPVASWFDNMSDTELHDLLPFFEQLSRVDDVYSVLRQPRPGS

[5] = molecular target: DNA (cytosine-5)-methyltransferase 1 (Homo sapiens, UniProt P26358); test: DNMT1 methyltransferase inhibitors, confirmation, biochemical, fluorescent molecular beacon (AID 602386); type: functional
[6] = Fluorescence Cell-Based Dose Response to Identify Inhibitors of Thrombin Receptor-Activating Peptide SFLLRN-Mediated P-Selectin Induction on Platelets. [Related pubchem assays: 1663 (Primary HTS), 1889 (retest at dose ), 1891 (counterscreen), 1678 (Project Summary)]; type: functional
[7] = blockers of SFLLRN-triggered platelet ATP secretion – cell-based, human platelets, luminescence, dry powder, dose response (AID 493100); type: functional
[8] = molecular target: Luciferin 4-monooxygenase (Photinus pyralis, UniProt P08659); test: firefly luciferase enzyme inhibitors, dose response, biochemical, luminescence (AID 1891)
[9] = inhibitors of SFLLRN-triggered platelet P-selectin exposure, dose response, cell-based, fluorescence, flow cytometry, human platelets (AID 2511); type: functional
[10] = Luminescence Cell-Based Dose Confirmation HTS to Identify Inhibitors of Platelet Dense Granule Release. [Related pubchem assays: 1663 (Primary HTS), 1678 (Summary of Project)]; type: functional
[11] = Luminescence Cell-Based Dose Response Follow up to Identify Inhibitors of Platelet Dense Granule Release. [Related pubchem assays (depositor defined):AID1663, AID1678, AID2398]; type: functional
CAAX prenyl protease 2 [12] = molecular target: T3, CAAX prenyl protease 2 (Homo sapiens, UniProt Q9Y256); test: human Rce1 protease inhibitors, dose response, biochemical, yeast membranes, quenched-peptide fluorescence, cherry-pick (AID 588849)
CAAX prenyl protease 2 [13] = molecular target: T3, CAAX prenyl protease 2; test: human Rce1 protease inhibitors, dose response, biochemical, plate reader, dry powder samples (AID 588848)
CAAX prenyl protease 2 [14] = molecular target: T4, CAAX prenyl protease 2 (Saccharomyces cerevisiae S288c, UniProt Q03530); test: yeast Rce1 CaaX protease inhibitors, dose response, biochemical, plate reader, dry powder retest (AID 588851)
T4 sequence (Q03530 whole entry): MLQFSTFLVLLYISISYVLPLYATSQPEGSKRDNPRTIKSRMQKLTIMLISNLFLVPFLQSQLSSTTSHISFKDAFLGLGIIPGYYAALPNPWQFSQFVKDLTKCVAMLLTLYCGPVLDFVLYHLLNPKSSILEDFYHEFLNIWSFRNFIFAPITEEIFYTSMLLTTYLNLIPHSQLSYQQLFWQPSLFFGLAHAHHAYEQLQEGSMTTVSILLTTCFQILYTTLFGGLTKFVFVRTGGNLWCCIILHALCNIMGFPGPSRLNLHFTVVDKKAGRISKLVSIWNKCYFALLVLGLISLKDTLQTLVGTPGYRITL

CAAX prenyl protease 2 [15] = molecular target: T4, CAAX prenyl protease 2; type: biochemical
[16] = molecular target: Beta-2 adrenergic receptor (Homo sapiens, UniProt P07550); test: beta2AR agonists driving receptor internalization, dose response, cell-based, FAP fluorogen, flow cytometry, cherry pick 1 (AID 588763); type: functional
[17] = molecular target: Short transient receptor potential channel 6 (Mus musculus, UniProt Q61143); test: TRPC6 inhibition potency of TRPC4 inhibitor analogs, dose response, selectivity assay for selective TRPC4 inhibitor project, HEK293 cells, membrane potential dye, IC50 (AID 492987); type: functional, cell-based
[18] = molecular target: T5, Short transient receptor potential channel 4 (Mus musculus, UniProt Q9QUQ5); test: TRPC4 inhibition under acetylcholine activation, SAR follow-up, cell-based, acetylcholine stimulus, HEK293 TRPC4, Fluo-4 (AID 492996); type: functional
T5 sequence (Q9QUQ5 whole entry): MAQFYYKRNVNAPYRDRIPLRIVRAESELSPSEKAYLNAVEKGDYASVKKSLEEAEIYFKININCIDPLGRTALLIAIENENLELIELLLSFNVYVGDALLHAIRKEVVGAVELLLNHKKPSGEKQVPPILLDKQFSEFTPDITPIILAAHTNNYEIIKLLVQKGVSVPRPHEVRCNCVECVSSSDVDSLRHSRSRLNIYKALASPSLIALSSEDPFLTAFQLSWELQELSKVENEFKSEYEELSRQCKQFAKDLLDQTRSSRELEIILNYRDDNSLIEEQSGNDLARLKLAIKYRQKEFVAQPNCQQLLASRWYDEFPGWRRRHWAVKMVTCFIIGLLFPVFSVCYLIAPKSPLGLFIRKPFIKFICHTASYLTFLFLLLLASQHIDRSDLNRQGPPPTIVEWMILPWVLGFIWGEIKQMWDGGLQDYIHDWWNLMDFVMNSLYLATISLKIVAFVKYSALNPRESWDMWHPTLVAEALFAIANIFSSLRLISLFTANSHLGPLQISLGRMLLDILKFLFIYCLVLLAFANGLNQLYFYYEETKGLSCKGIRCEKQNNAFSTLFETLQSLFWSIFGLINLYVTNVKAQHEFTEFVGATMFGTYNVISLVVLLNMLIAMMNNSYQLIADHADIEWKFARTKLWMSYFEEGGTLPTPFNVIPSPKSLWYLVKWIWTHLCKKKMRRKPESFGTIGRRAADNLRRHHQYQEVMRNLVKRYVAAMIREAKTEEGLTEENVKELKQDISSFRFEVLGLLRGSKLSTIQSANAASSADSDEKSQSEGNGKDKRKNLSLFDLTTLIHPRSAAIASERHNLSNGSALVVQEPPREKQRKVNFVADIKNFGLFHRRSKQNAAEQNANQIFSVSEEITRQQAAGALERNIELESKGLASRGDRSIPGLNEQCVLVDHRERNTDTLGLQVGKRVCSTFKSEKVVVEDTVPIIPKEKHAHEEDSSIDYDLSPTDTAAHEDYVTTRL

[19] = molecular target: T5, Short transient receptor potential channel 4; test: TRPC4 inhibitor concentration-response, dose response, cell-based, HEK293 TRPC4/mu-opioid, DAMGO stimulus, Fluo-4 (AID 492994); type: functional
[20] = molecular target: T5, Short transient receptor potential channel 4; test: SAR Analysis for the identification of selective inhibits of the transient receptor potential cation channel C4 (TRPC4): Automated Electrophysiology. [Related pubchem assays (depositor defined):AID2256]; type: functional
[21] = molecular target: Latent membrane protein 1 (Human herpesvirus 4 (strain B95-8), UniProt P03230); test: TES1-eGFP NF-kB reporter inhibition versus Tet-On dsRED, dose response, selectivity assay for LMP1 NF-kB inhibitor project, imaging, HEK293T, dual-color eGFP/dsRED, cherry-picks (AID 588398); type: functional, cell-based
Phospholipase D2 = Phospholipase D2 (Homo sapiens, UniProt O14939); test: PLD2 inhibitor potency in cells, dose response (AID 602147); type: functional;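 note: cellular assay in HEK293 cells overexpressing GFP-tagged PLD2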
Phospholipase D1 = Phospholipase D1 (Homo sapiens, UniProt Q13393); test: PLD1 inhibitor potency in cells, dose response (AID 602151); type: functional;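 note: cellular PLD1 assay in Calu-1 cells stimulated with PMA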

T3 sequence (Q9Y256 whole entry): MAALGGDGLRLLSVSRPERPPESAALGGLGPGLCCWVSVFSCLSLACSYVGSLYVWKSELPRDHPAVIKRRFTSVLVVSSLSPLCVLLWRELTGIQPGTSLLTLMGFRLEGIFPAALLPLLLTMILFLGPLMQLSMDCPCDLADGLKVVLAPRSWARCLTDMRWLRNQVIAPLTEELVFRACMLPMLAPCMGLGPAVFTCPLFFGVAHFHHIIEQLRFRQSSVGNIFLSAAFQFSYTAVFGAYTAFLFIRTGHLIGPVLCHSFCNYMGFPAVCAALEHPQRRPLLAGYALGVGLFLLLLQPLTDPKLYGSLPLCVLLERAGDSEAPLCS
T1 sequence (P63165 whole entry): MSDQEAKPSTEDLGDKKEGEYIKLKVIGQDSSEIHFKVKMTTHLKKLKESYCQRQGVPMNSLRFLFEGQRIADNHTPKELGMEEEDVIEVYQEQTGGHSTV
Latent membrane protein 1, sequence (P03230 whole entry): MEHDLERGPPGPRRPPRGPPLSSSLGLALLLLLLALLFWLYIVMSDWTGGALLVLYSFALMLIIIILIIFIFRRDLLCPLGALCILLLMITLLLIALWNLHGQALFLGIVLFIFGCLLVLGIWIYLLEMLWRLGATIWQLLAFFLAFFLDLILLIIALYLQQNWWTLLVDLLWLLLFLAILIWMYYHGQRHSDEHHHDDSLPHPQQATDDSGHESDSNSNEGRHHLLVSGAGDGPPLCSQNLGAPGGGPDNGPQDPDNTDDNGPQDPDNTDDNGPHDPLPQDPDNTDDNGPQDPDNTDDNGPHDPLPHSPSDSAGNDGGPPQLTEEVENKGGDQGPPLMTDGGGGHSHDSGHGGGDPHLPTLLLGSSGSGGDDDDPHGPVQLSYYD
Beta-2 adrenergic receptor, sequence (P07550 whole entry): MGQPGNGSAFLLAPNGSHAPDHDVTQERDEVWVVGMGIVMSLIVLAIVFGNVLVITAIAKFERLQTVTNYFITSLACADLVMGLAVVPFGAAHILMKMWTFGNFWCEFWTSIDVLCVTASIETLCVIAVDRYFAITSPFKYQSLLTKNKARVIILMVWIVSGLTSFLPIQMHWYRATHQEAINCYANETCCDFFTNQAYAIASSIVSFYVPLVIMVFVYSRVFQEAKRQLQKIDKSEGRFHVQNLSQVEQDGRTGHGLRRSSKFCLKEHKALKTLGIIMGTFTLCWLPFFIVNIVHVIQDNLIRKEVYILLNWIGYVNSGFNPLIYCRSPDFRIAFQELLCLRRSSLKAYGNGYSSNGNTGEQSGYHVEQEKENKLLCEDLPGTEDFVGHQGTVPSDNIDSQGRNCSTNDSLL
Luciferin 4-monooxygenase, sequence (P08659 whole entry): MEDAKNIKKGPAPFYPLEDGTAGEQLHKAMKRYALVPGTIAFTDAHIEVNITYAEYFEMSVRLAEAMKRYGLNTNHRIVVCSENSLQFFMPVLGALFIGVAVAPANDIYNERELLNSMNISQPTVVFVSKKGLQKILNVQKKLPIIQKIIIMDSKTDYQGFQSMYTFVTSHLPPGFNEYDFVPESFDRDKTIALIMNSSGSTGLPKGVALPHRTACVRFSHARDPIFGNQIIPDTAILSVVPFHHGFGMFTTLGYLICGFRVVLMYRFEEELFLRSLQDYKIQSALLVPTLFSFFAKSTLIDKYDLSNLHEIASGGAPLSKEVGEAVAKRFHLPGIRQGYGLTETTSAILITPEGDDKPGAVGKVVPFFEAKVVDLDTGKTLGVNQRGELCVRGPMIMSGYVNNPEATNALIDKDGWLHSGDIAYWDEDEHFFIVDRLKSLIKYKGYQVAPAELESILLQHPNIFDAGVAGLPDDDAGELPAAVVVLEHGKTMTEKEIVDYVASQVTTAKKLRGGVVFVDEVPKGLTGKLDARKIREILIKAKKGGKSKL
Beta-adrenergic receptor kinase 1, sequence (P25098 whole entry, the tested form may be a part): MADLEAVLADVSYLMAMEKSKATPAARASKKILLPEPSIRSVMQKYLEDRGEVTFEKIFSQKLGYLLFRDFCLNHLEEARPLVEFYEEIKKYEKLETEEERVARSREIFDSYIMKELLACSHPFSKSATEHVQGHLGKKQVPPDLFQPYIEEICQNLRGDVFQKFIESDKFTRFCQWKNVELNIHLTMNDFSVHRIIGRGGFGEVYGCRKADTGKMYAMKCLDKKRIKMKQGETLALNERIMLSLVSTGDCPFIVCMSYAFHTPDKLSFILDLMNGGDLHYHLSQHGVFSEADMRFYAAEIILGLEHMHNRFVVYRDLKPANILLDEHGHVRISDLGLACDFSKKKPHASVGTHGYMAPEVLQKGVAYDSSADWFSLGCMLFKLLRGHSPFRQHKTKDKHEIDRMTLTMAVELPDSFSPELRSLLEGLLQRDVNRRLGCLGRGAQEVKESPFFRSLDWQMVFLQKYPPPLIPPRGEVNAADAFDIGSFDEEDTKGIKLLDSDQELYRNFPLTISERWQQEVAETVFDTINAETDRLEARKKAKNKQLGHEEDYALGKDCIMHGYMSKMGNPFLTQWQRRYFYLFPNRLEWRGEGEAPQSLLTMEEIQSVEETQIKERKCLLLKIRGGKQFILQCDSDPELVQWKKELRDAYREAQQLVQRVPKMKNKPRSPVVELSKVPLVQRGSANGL
DNA (cytosine-5)-methyltransferase 1, sequence (P26358 whole entry): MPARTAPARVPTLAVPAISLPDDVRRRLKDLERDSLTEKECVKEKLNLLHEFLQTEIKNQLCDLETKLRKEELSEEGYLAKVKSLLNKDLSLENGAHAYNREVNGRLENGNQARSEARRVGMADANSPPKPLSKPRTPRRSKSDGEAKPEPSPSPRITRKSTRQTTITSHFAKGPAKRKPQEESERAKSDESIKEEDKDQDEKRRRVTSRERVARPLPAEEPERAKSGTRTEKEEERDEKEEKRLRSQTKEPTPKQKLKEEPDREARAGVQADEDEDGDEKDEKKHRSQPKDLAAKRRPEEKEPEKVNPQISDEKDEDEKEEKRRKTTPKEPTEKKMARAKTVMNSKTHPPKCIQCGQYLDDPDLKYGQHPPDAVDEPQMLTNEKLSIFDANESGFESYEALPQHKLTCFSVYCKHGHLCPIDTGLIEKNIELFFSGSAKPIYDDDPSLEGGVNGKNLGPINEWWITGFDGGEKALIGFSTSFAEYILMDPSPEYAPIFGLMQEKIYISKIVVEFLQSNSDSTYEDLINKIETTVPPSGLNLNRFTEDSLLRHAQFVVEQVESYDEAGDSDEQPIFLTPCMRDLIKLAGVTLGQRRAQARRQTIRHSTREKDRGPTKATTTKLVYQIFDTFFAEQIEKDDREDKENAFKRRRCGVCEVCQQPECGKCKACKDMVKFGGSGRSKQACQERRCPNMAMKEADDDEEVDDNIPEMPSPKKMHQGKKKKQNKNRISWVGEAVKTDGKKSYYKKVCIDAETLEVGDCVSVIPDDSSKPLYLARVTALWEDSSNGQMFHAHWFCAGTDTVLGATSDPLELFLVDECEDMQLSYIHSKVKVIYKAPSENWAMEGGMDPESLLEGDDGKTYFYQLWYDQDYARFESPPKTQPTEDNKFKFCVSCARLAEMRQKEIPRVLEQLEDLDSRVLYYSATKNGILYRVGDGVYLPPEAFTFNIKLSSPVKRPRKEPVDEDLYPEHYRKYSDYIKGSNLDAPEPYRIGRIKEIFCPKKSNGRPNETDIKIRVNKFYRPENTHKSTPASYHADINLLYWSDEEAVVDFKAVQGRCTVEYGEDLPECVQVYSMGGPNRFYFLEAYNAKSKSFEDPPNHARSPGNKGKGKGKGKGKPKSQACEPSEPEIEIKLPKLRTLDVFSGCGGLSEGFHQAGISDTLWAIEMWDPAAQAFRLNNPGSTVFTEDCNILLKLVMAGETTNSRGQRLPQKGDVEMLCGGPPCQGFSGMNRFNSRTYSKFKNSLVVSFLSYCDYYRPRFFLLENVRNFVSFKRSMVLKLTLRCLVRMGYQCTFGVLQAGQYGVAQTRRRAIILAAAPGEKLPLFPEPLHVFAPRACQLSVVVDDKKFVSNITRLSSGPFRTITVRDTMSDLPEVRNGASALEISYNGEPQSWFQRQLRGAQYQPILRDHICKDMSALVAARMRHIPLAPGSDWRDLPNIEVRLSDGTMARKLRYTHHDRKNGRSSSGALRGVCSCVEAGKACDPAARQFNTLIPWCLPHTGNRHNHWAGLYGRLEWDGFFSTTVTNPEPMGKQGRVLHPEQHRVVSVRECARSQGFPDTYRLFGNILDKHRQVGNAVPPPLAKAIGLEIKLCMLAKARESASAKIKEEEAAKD
Phospholipase D2, sequence (O14939 whole entry): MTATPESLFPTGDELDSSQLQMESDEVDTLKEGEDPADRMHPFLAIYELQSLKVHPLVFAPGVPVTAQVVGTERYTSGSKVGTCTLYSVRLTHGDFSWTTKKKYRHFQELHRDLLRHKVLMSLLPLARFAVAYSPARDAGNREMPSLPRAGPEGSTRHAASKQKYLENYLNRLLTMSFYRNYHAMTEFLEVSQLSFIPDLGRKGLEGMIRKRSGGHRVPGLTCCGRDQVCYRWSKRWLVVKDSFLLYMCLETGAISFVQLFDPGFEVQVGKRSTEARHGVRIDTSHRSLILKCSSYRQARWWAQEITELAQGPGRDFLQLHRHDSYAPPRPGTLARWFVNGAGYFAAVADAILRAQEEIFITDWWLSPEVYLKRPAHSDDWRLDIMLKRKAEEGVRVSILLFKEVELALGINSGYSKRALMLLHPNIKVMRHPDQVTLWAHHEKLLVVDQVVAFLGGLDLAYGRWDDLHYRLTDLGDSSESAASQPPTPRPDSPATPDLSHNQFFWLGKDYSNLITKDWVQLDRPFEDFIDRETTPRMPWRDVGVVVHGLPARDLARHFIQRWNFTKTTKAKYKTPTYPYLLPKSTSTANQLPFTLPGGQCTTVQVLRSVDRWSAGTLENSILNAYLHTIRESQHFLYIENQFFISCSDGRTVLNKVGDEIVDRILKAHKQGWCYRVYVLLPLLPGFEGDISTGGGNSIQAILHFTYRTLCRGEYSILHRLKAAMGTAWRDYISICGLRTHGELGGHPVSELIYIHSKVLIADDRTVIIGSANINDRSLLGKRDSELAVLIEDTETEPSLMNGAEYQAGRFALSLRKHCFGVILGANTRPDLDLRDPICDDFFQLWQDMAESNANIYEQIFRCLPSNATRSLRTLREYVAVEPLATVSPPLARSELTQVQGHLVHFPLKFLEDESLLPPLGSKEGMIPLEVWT

CCOC(=O)C(C)N1C(=O)S/C(=C\c2ccc(-c3ccccc3C(=O)O)o2)C1=O (stereo not drawn)
IC50 [1]: > 66.6 µM (inactive) | IC50 [2]: 10.3 µM (active) | EC50 [3]: 3.05 µM (active) | IC50 [4]: 1.88 µM (active) | IC50 [5]: 6.76 µM (active)

Cc1ccc(-n2c(N)c(C#N)c(-c3ccccc3)c(C#N)c2=O)cc1
EC50 [6]: < 0.3 µM (active) | AC50 [7]: 7.52 µM (active) | EC50 [8]: > 112 µM (not active) | EC50 [9]: < 3 µM (active) | EC50 [10]: 3.22 µM (active) | EC50 [11]: 0.36 µM (active)

CN(C(=O)COC(=O)c1cc([N+](=O)[O-])ccc1Sc1ccccc1)C1CCS(=O)(=O)C1 (stereo not drawn)
AC50 (CAAX prenyl protease 2 [12]): 17.3 µM (active) | AC50 (CAAX prenyl protease 2 [13]): 60.6 µM (active) | AC50 (CAAX prenyl protease 2 [14]): 4.85 µM (active) | AC50 (CAAX prenyl protease 2 [15]): 0.55 µM (active)

CCOC(=O)c1ccc(N2C(=O)c3[nH]nc(-c4ccco4)c3C2c2cccc([N+](=O)[O-])c2)cc1 (stereo not drawn)
EC50 [16]: 0.571 µM (active)

Cc1cc(N2CCCC2)nc2ccccc12
IC50 [17]: 11.9 µM (active) | IC50 [18]: 39.1 µM (active) | IC50 [19]: 1.84 µM (active) | IC50 [20]: 3.59 µM (active)

CC(=NNC(=S)N1CCCCC1)c1ccccn1
AC50 [21]: 4.29 µM (active)

O=C(c1cnc2ccccc2c1)N1CCCC1CN1CCC(n2c(=O)[nH]c3ccccc32)CC1 (stereo not drawn)
IC50 (Phospholipase D2): 3.75 µM (active) | IC50 (Phospholipase D1): 2.8 µM (active)

Source: ChEMBL document CHEMBL1201862, “PubChem BioAssay data set” (2004)
